Test results as given in US12661404B2, “Methods and materials for tissue ablation” (Mayo Foundation for Medical Education and Research, priority 2020, dated 2026).

Tests used:
rat liver = details: solubilized with ICG in 25%-LATTE, injected into rat liver
Protocol: Time-dependent evaluation of chemotherapy drug diffusion and retention following LATTE injection in rat liver. […] Post necropsy, near-infrared fluorescent scans (NIRF) showing ICG retention at the two injection sites. […] Fluorescent scans visualizing Doxorubicin at the medial location of the same liver.
Intrahepatic injections or LATTE mixtures were performed in Sprague Dawley rats via laparotomy. Anesthetized rats were placed in a supine position on a warming platform. The abdominal hair was removed with an electric shaver and scrubbed to disinfect the skin with triple applications of povidone-iodine alternating with 70% alcohol. […]
To assess differences in ICG or doxorubicin spreading and retention following intrahepatic injections, ex vivo spectral fluorescence imaging was performed on fixed liver tissues using the IVIS 200 system (PerkinElmer, Inc. USA). […] Cross-sectional images were acquired following near-infrared illumination at the excitation wavelength of 750 nm, while fluorescent emission was acquired at 850 nm to visualize indocyanine green (ICG); Doxorubicin was detected at an excitation wavelength of 460 nm and an emission wavelength of 560 nm. […] Fluorescent intensity was quantified in the region of interest (ROI) of each tissue. […]

[1] = tested on: human hepatocellular carcinoma (Hep-G2) cells; assay: cells; details: HepG2, 24 h, read-out: EC50, fractional viability
Protocol: HepG2 human liver cancer cell line (ATCC CRL10741; American Type Culture Collection, Manassas, VA, USA) were cultured in 75 cm^2 flasks using growth medium consisting of low glucose Dulbecco's Modified Eagle Medium (DMEM, ThermoFisher) and 10% heat-inactivated bovine serum that was supplemented with 100 IU penicillin and 10 μg/mL streptomycin (Thermo Fisher Scientific). […] The anticancer activity of LATTE on HepG2 was determined using WST-1 reagent (2-(4-Iodophenyl)-3-(4-nitrophenyl)-5-(2,4-disulfophenyl)-2H-tetrazolium sodium) assay as an indication of viability/cytotoxicity treatment. WST-1 viability assay is based on the reduction of tetrazolium salt, WST-1 to an insoluble formazan dye by electron transport across the plasma membrane in viable cells that alter the optical density of the media. […] Cell viability was calculated relative to control wells that received the growth medium alone.
All reported values are the means of three replicate experiments with each study having 8 wells per dose level. Plots of the log concentration versus fractional viability for each drug were generated for each study.

renal artery = tested on: renal artery; parameters: species or system swine; details: in vivo
Protocol: Healthy Yorkshire pigs (S&S Farms, Brentwood, CA) weighing 48 to 55 kg were acclimatized for at least 4 days under standard feeding conditions and suitable temperature. Pigs were anesthetized using intramuscular injection of 5 mg kg^−1 tiletamine-zolazepam (Telazol, Zoetis), […] xylazine, and 0.02 mg kg^−1 glycopyrrolate. Pigs were then placed in a supine position and intubated on an X-ray compatible operating table (Pannomed Aeron, DRE, KY). Following intubation, anesthesia was maintained with inhalation of 1.5-3% isoflurane. During the procedure, electrocardiogram, transcutaneous oxyhemoglobin saturation (SpO2), end-tidal CO2 concentration, inspired oxygen fraction, and core temperature were monitored. Percutaneous access to the carotid artery was obtained using ultrasound guidance (ACUSON 52000, Siemens) and fluoroscopy (OEC Elite C-Arm, GE Healthcare Systems, Chicago, IL). Access needle and wire were exchanged for a 5 French catheter (Cook Medical). Over a GT-glidewire (Terumo Medical), the tip of the catheter was advanced to the renal using contrast-enhanced fluoroscopy (350 mgI mL-1 Omnipaque, GE HealthCare, MA). […] The radiopacity of NanoGel or NS hydrogel and vessel patency were assessed using digital subtraction angiography. […] At necropsy, the embolized kidneys were explanted for fluorescence imaging and histology.

| Compound | doxorubicin retention throughout the affected zone (rat liver) | EC50 [1] [nM] | nivolumab localization (immunohistochemistry) (renal artery) |
| --- | --- | --- | --- |
| COc1cccc2c1C(=O)c1c(O)c3c(c(O)c1C2=O)C[C@@](O)(C(=O)CO)C[C@@H]3O[C@H]1C[C@H](N)[C@H](O)[C@H](C)O1 [Doxorubicin] | up to 28 days | 1630 | – |
| Nivo: immunotherapy agent Nivolumab (an anti PD-1 antibody) | – | – | localized inside the renal artery and in the surrounding area |
